Data set [1] deals with T1, human cloned dopamine D4.2 receptors (Homo sapiens, UniProt P21917, DEL265-296).
T1 construct: expressed in transfected cells; host or cells: CHO cells
T1 sequence (P21917 with tags, fused parts or gaps DEL265-296): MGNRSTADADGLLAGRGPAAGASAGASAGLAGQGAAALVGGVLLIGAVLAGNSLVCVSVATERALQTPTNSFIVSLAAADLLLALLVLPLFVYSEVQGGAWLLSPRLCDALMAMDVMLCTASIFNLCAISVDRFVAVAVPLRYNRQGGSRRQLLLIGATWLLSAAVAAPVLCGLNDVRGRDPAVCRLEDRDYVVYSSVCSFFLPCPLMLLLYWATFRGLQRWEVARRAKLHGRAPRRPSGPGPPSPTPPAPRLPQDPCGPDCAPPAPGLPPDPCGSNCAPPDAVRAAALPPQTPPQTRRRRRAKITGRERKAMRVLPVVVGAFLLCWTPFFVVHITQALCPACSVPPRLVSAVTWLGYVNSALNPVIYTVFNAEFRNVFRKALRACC
The data set is described as follows: Inhibition of the binding of 3H-YM-09151-2 to human dopamine D4 receptors. The note with it: [3H]YM-09151-2 0.06 nM, membranes of CHO-cells; read-out: D4-bind. IC50. As for the experimental part:
Inhibition of the Binding of ^3H-YM-09151-2 to Human Dopamine D4 Receptors
By this method the inhibition by drugs of the binding of [^3H]YM-09151-2 (0.06 nM) to membranes of human cloned dopamine D4.2 receptors expressed in CHO-cells is determined in vitro. Method modified from NEN Life Science Products, Inc., technical data certificate PC2533-10/96. The results are given in the following Table 1 as IC50-values or as percent inhibition of the binding of ^3H-YM-09151 -2 at the concentration of the test compound indicated.

Data set [2] has as its target T2, human cloned dopamine D3 receptors (Homo sapiens, UniProt P35462).
T2 construct: expressed in transfected cells; host or cells: CHO cells
The data set is described as follows: Inhibition of the binding of [3H]-Spiperone to human D3 receptors. The settings on record: [3H]Spiperone 0.3 nM, membranes of CHO-cells; read-out: D3-bind. IC50. As for the experimental part:
Inhibition of the Binding of [^3H]-Spiperone to Human D3 Receptors
By this method the inhibition by drugs of the binding [^3H]Spiperone (0.3 nM) to membranes of human cloned dopamine D3 receptors expressed in CHO-cells is determined in vitro. Method modified from R. G. MacKenzie et al. Eur. J. Pharm.-Mol. Pharm. Sec. 1994, 266, 79-85. The results are given in the following Table 1 as IC50-values or as percent inhibition of the binding of ^3H-Spiperone at the concentration of the test compound indicated.

The target in another data set is T3, D4 receptor (Homo sapiens, UniProt P21917).
T3 sequence (P21917 1-419): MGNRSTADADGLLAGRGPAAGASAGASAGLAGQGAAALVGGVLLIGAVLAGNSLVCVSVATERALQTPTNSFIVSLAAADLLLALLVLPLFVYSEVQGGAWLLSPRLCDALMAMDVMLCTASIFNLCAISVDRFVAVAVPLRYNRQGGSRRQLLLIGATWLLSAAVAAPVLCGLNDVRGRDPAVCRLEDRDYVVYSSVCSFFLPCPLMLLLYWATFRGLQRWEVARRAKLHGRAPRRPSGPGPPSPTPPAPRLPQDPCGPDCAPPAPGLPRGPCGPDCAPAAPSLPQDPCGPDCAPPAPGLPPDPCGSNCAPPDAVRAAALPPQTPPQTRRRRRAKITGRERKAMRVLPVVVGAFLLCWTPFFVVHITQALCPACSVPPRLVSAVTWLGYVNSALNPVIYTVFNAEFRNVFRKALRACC
The note with it: various in vitro efficacy assays; cited from earlier work.

Molecules are shown by their SMILES. Counter-ions that a name gives are not always drawn.

This is an account of results in US20030083336A1, “Phenylpiperazinyl derivatives” (H. Lundbeck A/S, priority 1999, published 2003).

T2 sequence (P35462 whole entry): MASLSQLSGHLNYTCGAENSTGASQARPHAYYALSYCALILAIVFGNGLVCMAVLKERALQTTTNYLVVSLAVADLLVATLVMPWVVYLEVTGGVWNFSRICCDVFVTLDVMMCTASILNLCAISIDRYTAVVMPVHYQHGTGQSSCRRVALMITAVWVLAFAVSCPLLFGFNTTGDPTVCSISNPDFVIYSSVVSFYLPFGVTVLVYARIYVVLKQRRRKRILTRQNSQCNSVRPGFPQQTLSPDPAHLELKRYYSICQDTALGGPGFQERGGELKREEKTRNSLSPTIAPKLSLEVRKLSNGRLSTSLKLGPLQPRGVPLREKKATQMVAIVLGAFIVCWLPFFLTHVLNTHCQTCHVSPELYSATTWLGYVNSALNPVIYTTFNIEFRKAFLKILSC

Broadly, the melting point is the temperature, or range, at which the solid turns liquid. As for `Cc1c(N2CCOCC2)cccc1N1CCN(CCCc2c[nH]c3ccc(F)cc23)CC1` (as salt: HCl) [Compound 1d, 1-[2-methyl-3-(morpholin-4-yl)phenyl]-4-[3-(5-fluoro-1H-indol-3-yl)propyl]piperazine], the melting point lay within 212 to 215 °C. Regarding `Cc1c(N2CCOCC2)cccc1N1CCN(CCCc2c[nH]c3ccccc23)CC1` (hydrate or solvate) [Compound 1b, 1-[3-(1H-Indol-3-yl)propyl]-4-[2-methyl-3-(morpholin-4-yl)-phenyl]piperazine], the melting point is 112 to 113 °C. Usually IC50 stands for the concentration at which inhibition is half-maximal. On to `Cc1c(N2CCOCC2)cccc1N1CCN(CCCCc2c[nH]c3ccccc23)CC1` [Compound 1c, 1-[2-methyl-3-(morpholin-4-yl)phenyl]-4-[4-(1H-indol-3-yl)butyl]piperazine], for which the melting point lay within 111 to 113 °C. Moreover, the 50% inhibitory concentration (IC50) in data set [1] came to 15 nM. For the same compound, the IC50 in data set [2] was found to be 130 nM. In the same order, the values of `Cc1c(N2CCOCC2)cccc1N1CCN(CCCCc2c[nH]c3ccc(F)cc23)CC1` [Compound 1e, 1-[2-metlyl-3-(morpholin-4-yl)phenyl]-4-[4-(5-fluoro-1H-indol-3-yl)butyl]piperazine] are 112 to 114 °C, 14 nM and 63 nM.

Regarding `CC(C)Oc1cccnc1N(C)C1CCN(Cc2ccccc2)CC1` [Compound U-101958], the “Functional activity at D4 receptor (literature)” value on D4 receptor is on record as “partial D4 receptor agonists”.
